In data set [1] the test system is Podosphaera leucotricha. Kind of data set: Action against Podosphaera leucotricha/apple (powdery mildew on apple). Conditions: apple seedlings cv. McIntosh, spray 0.002% active ingredient, inoculated one day after application, assessed after 12 days incubation. The class given is in vivo. The method, then:
Action Against Podosphaera leucotricha/apple (Powdery Mildew on Apple)
5 week old apple seedlings cv. […] One day after application apple plants are inoculated by shaking plants infected with apple powdery mildew above the test plants. After an incubation period of 12 days at 22° C. and 60% r. h. under a light regime of 14/10 h (light/dark) the disease incidence is assessed.

Data set [2] relates to Venturia Inaequalis. Kind of data set: Action against Venturia inaequalis/apple (scab on apple). The class given is in vivo. Conditions: apple seedlings cv. McIntosh, spray 0.02% active ingredient, inoculated one day after application, assessed after 4+4+4 days incubation. The method, then:
Action Against Venturia Inaequalis/apple (Scab on Apple)
4 week old apple seedlings cv. […] One day after application apple plants are inoculated by spraying a spore suspension (4×10^5 conidia/ml) on the test plants. After an incubation period of 4 days at 21° C. and 95% r. h. the plants are placed for 4 days at 21° C. and 60% r. h. in a greenhouse. After another 4 day incubation period at 21° C. and 95% r. h. the disease incidence is assessed.

In data set [3] the test system is Etysiphe graminis. In words: Action against Etysiphe graminis/barley (powdery mildew on barley). The class given is in vivo. Conditions: barley plants cv. Express, spray 0.02% active ingredient, inoculated one day after application, assessed after 6 days incubation. On the procedure: Action Against Etysiphe graminis/barley (Powdery Mildew on Barley)
1 week old barley plants cv. […] One day after application barley plants are inoculated by shaking powdery mildew infected plants above the test plants. After an incubation period of 6 days at 20° C./18° C. (day/night) and 60% r. h. in a greenhouse the disease incidence is assessed.

Data set [4] concerns Botryis cinerea. Kind of data set: Action against Botryis cinerea/apple (Botrytis on apple fruits). Conditions: apple fruit cv. Golden Delicious, 30 μl droplets 0.002% active ingredient in drilled holes, inoculated two hours after application, assessed after 7 days. The class given is in vivo, B. cinerea. The method, then:
Action Against Botryis cinerea/apple (Botrytis on Apple Fruits)
In an apple fruit cv. […] Two hours after application 50 μl of a spore suspension of B. cinerea (4×10^5 conidia/ml) are pipetted on the application sites. After an incubation period of 7 days at 22° C. in a growth chamber the disease incidence is assessed.

Data set [5] has as its system Boftis cinerea. In words: Action against Boftis cinerea/grape (Botrytis on grapes). Conditions: grape seedlings cv. Gutedel, spray 0.002% active ingredient, inoculated two days after application, assessed after 4 days incubation. The class given is in vivo. The method, then:
Action Against Boftis cinerea/grape (Botrytis on Grapes)
5 week old grape seedlings cv. […] Two days after application grape plants are inoculated by spraying a spore suspension (1×10^6 conidia/ml) on the test plants. After an incubation period of 4 days at 21° C. and 95% r. h. in a greenhouse the disease incidence is assessed.

For data set [6], the system named is Botryts cinerea. In words: Action against Botryts cinerea/tomato (Botrytis on tomatoes). The class given is in vivo. Conditions: tomato plants cv. Roter Gnom, spray 0.002% active ingredient, inoculated two days after application, assessed after 4 days incubation. The method, then: Action Against Botryts cinerea/tomato (Botrytis on Tomatoes)
4 week old tomato plants cv. […] Two days after application tomato plants are inoculated by spraying a spore suspension (1×10^5 conidia/ml) on the test plants. After an incubation period of 4 days at 20° C. and 95% r. h. in a growth chamber the disease incidence is assessed.

Data set [7] concerns Puenophora teres. Kind of data set: Action against Puenophora teres/barley (net blotch on barley). The class given is in vivo. Conditions: barley plants cv. Express, spray 0.002% active ingredient, inoculated two days after application, assessed 4 days after inoculation. On the procedure:
Action Against Puenophora teres/barley (Net Blotch on Barley)
1 week old barley plants cv. […] Two days after application barley plants are inoculated by spraying a spore suspension (3×10^4 conidia/ml) on the test plants. After an incubation period of 2 days at 20° C. and 95% r. h. plants are kept for 2 days at 20° C. and 60% r.h. in a greenhouse. The disease incidence is assessed 4 days after inoculation.

In data set [8] the test system is Septoria nodorum. In words: Action against Septoria nodorum/wheat (Septoria leaf spot on wheat). Conditions: wheat plants cv. Arina, spray 0.02% active ingredient, inoculated one day after application, assessed 11 days after inoculation. The class given is in vivo. The method, then:
Action Against Septoria nodorum/wheat (Septoria Leaf Spot on Wheat)
1 week old wheat plants cv. […] One day after application wheat plants are inoculated by spraying a spore suspension (5×10^5 conidia/ml) on the test plants. After an incubation period of 1 day at 20° C. and 95% r. h. plants are kept for 10 days at 20° C. and 60% r.h. in a greenhouse. The disease incidence is assessed 11 days after inoculation.

Turning to `Cc1cn(C)cc1C(=O)Nc1ccccc1-c1ccc(F)cc1` [Compound 1.25], the melting point – broadly, the temperature, or range, at which the solid turns liquid – lay in the range of 148 to 149 °C. Moreover, the “efficacy (disease incidence)” value in [1] is “strong efficacy”. For the same compound, the “efficacy (disease incidence)” value in data set [2] is given as “strong efficacy”. For the same compound, the “efficacy (disease incidence)” value in [3] is reported as “strong efficacy”. Moreover, the “efficacy (disease incidence)” value in data set [4] was “strong efficacy”. In data set [5], the “efficacy (disease incidence)” value is reported as “strong efficacy”. In data set [6], the “efficacy (disease incidence)” value is on record as “strong efficacy”. For the same compound, in data set [7], the “efficacy (disease incidence)” value is listed as “strong efficacy”. Besides, the “efficacy (disease incidence)” value in data set [8] was “strong efficacy”.

Take `Cc1cn(C)cc1C(=O)Nc1cnccc1-c1ccc(Cl)cc1` [Compound 6.10]: the “efficacy (disease incidence)” value in data set [1], in data set [2], in [3], in data set [4], in data set [5] and in data set [6] was “strong efficacy” in each case. Moreover, the “efficacy (disease incidence)” value in data set [7] and in data set [8] was “strong efficacy” throughout.

With `Cc1cn(C)cc1C(=O)Nc1cnccc1-c1ccc(F)cc1` [Compound 6.12], the “efficacy (disease incidence)” value in data set [1], in data set [2], in data set [3], in [4], in data set [5] and in [6] was “strong efficacy” in each case. The “efficacy (disease incidence)” value in data set [7] and in data set [8] was “strong efficacy” in each case.

Regarding `Cn1cc(C(=O)Nc2cnccc2-c2ccc(Cl)cc2)c(C2CC2)c1` [Compound 6.49], the “efficacy (disease incidence)” value in data set [1], in data set [2], in [3], in data set [4], in data set [5] and in data set [6] was “strong efficacy” in each case. Further, the “efficacy (disease incidence)” value in data set [7] and in [8] was “strong efficacy” throughout.

Turning to `Cn1cc(C(=O)Nc2cnccc2-c2ccc(F)cc2)c(C2CC2)c1` [Compound 6.51], the “efficacy (disease incidence)” value in [1], in [2], in data set [3], in [4], in data set [5] and in [6] was “strong efficacy” each time. Moreover, the “efficacy (disease incidence)” value in data set [7] and in data set [8] was “strong efficacy” each time.

Values taken from patent US6806286B2, “Pyrrolecarboxamides and pyrrolethioamides as fungicides” (Syngenta Crop Protection, Inc., priority 2000, dated 2004).
